Several values for one entry are separate records, joined by “and”; a condition that tells them apart may be missing. Identical values can stand only once. Like-named read-outs stand apart in the source and are kept apart here.
What was measured:
[1] = tested on: B16-F10; test: Cell growth inhibition, resazurin, 48 h; format: cell-based, mouse; details: Mus musculus, B16-F10, 48 h, B16-F10, 48 h drug exposure
Experimental: (§1) RPMI 8226 (CCL-155), HT-29 (HTB-38), and B16-F10 (CRL-6475) cells were purchased from ATCC. RPMI 8226 cells were maintained in RPMI 1640 media supplemented with 10% (v/v) FBS, 2 mM L-glutamine, 1 mM sodium pyruvate and Penicillin/Streptomycin at 100 IU/ml and 100 μg/ml, respectively. HT-29 cells were maintained in McCoys 5A supplemented with 10% (v/v) FBS, 2 mM L-glutamine, 1 mM sodium pyruvate, 1% (v/v) non-essential amino acids, 10 mM HEPES and Penicillin/Streptomycin at 100 IU/ml and 100 μg/ml, respectively. B16-F10 cells were maintained in DMEM supplemented with 10% (v/v) FBS, 2 mM L-glutamine, 10 mM HEPES and Penicillin/Streptomycin at 100 IU/ml and 100 μg/ml, respectively.
(§2) RPMI 8226 cells were seeded at 2×10^4 cells/well in 90 μl RPMI media containing 10% (v/v) FBS or 1% (v/v) FBS into 96 well black-walled, clear-bottom tissue culture plates. […] Formulae II-16, II-17 and Formula II-18 were serially diluted in media containing 1% or 10% FBS and added in triplicate to the test wells. […] The final concentration of Formula II-18 ranged from 2 μM to 630 pM.

[2] = tested on: HT-29; test: Cell growth inhibition, resazurin, 48 h; format: cell-based, human; details: Homo sapiens, HT-29, 48 h drug exposure
Experimental: as §1, §2

[3] = tested on: MDA-MB-231; test: Cell growth inhibition, resazurin, 48 h; format: cell-based, human; details: Homo sapiens, MDA-MB-231, 48 h, MDA-MB-231, 48 h drug exposure
[4] = tested on: NCI-H292; test: Cell growth inhibition, resazurin, 48 h; format: cell-based, human; details: Homo sapiens, NCI-H292, 48 h, NCI-H292, 48 h drug exposure
[5] = tested on: OVCAR-3; test: Cell growth inhibition, resazurin, 48 h; format: cell-based, human; details: OVCAR-3, 48 h drug exposure
[6] = target: T1, trypsin-like activity of rabbit muscle 20S proteasome (Oryctolagus cuniculus, UniProt G1SWK8); test: In vitro inhibition of 20S proteasome, Boc-LRR-AMC; format: biochemical; details: for EC50: purified rabbit 20S proteasome, Boc-LRR-AMC; for inhibition of the trypsin-like activity of the 20S proteasome: under the conditions tested
T1 construct: EC50 Trypsin-like; other: purified rabbit 20S proteasome, Boc-LRR-AMC; other: under the conditions tested
T1 sequence (G1SWK8 1-271): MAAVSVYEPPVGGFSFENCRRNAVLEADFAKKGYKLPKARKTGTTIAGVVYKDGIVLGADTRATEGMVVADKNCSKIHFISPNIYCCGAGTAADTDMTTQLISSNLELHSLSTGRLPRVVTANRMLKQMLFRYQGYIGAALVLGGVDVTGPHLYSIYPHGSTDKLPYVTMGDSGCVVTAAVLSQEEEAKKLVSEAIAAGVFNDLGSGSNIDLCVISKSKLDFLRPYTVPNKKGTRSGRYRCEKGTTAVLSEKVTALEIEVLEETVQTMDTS

[7] = tested on: NF-κB-mediated luciferase activity in HEK293 NF-κB/Luc cells; test: NF-κB-mediated luciferase reporter gene assay; format: cell-based, human; details: for EC50: 6 h TNF-α stimulation; for luciferase activity upon TNF-α stimulation: pretreatment of NF-κB/Luc 293 cells
Experimental: The HEK293 NF-κB/luciferase reporter cell line is a derivative of the human embryonic kidney cell line (ATCC; CRL-1573) and carries a luciferase reporter gene under the regulation of 5×NF-κB binding sites. […] When performing the luciferase assay, the DMEM basal medium was replaced with phenol-red free DMEM basal medium and the G418 was omitted.
For NF-κB-mediated luciferase assays, HEK293 NF-κB/luciferase cells were seeded at 1.5×10^4 cells/well in 90 μl phenol-red free DMEM complete medium into Corning 3917 white opaque-bottom tissue culture plates. For Formulae II-2, II-4, II-5A and II-18, a 400 μM starting dilution was made in 100% DMSO and this dilution was used to generate an 8-point half log dilution series. […] For formula II-20, a 2.5 mM or 8 mM starting dilution was made in 100% DMSO and the final test concentrations ranged from 6.3 μM to 2.0 nM or 20 μM to 6.3 nM respectively. The plates were returned to the incubator for 1 hour. After 1 hr pretreatment, 10 μl of a 50 ng/ml TNF-α solution, prepared in the phenol-red free DMEM medium was added, and the plates were incubated for an additional 6 hours.
At the end of the TNF-α stimulation, 100 μl of Steady Lite HTS luciferase reagent (Packard Bioscience) was added to each well and the plates were left undisturbed for 10 min at room temperature before measuring the luciferase activity. The relative luciferase units (RLU) were measured by using a Fusion microplate fluorometer (Packard Bioscience).
NF-κB inducible luciferase activity was measured at 6 hours.

[8] = tested on: PC-3; test: Cell growth inhibition, resazurin, 48 h; details: Homo sapiens, PC-3, 48 h, PC-3, 48 h drug exposure
[9] = target: caspase-like (PGPH) activity of rabbit muscle 20S proteasome (Oryctolagus cuniculus, UniProt A0A5F9DQW2); test: In vitro inhibition of 20S proteasome, Z-LLE-AMC; details: purified rabbit 20S proteasome, Z-LLE-AMC
Chain of caspase-like (PGPH) activity of rabbit muscle 20S proteasome (A0A5F9DQW2 1-212): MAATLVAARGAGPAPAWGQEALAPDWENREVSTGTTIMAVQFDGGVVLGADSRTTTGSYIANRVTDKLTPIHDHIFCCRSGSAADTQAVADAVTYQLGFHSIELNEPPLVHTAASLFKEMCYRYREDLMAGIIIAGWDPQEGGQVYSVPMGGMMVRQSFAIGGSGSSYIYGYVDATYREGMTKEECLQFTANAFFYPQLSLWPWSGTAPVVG

[10] = target: T2, chymotrypsin-like activity of rabbit muscle 20S proteasome (Oryctolagus cuniculus, UniProt G1T4Q9); test: In vitro inhibition of 20S proteasome, suc-LLVY-AMC
T2 sequence (G1T4Q9 1-263): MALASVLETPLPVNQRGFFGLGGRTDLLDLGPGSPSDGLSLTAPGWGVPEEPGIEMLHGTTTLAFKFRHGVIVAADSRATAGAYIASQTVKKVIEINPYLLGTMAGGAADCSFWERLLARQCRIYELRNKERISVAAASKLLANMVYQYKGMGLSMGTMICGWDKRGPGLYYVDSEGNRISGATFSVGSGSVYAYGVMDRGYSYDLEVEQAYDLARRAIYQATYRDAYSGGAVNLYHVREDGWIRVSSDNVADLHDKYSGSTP

[11] = tested on: RPMI 8226; test: Cell growth inhibition, resazurin, 48 h
Experimental: as §1, §2

[12] = tested on: U266; test: Cell growth inhibition, resazurin, 48 h; format: cell-based, human; details: U266, 48 h drug exposure, read-out: EC50
[13] = tested on: MES-SA; test: Cell growth inhibition, resazurin, 48 h; details: 48 h drug exposure
Experimental: (§3) Concentrations ranging from 6.32 μM to 2 nM were tested for II-2 and II-4.

[14] = tested on: HL-60/MX2; test: Cell growth inhibition, resazurin, 48 h; details: HL-60/MX2, 48 h drug exposure
Experimental: (§4) The DNA binding agent Mitoxantrone was included as a control, as HL-60/MX2 cells are reported to be resistant to this chemotherapeutic agent (Harker W. G. et al. 1989).
as §3

[15] = tested on: HL-60; test: Cell growth inhibition, resazurin, 48 h; details: HL-60, 48 h drug exposure
Experimental: as §4, §3

[16] = tested on: MES-SA/Dx5; test: Cell growth inhibition, resazurin, 48 h; details: MES-SA/Dx5, 48 h drug exposure
Experimental: as §3

[17] = read-out: EC50 Caspase-like (PGPH)
[18] = Homo sapiens, RPMI-8226, 48 h, RPMI 8226, 48 h drug exposure

With C[C@@]12OC(=O)[C@]1([C@@H](O)[C@H]1CCC[C@H]3O[C@@H]13)NC(=O)[C@@H]2CCCl [Formula II-5A] as the compound, how does the EC50 [1] read?
Its EC50 is 78 ± 11 nM.

What about the EC50 ([2]; HT-29, 48 h) of the same compound?
Its EC50 is 67 ± 17 nM.

And the EC50 [3]?
The EC50 was 61 ± 4.6 nM.

And the EC50 [4]?
The EC50 was 102 ± 19 nM.

And the EC50 ([5]; Homo sapiens, OVCAR-3, 48 h)?
The EC50 was 80 nM.

What about the EC50 [5] of the same compound?
Its EC50 is 64 nM.

And the EC50 [6]?
The EC50 was 90 nM.

What about the “inhibition of the trypsin-like activity of the 20S proteasome” value (from here on “inhibition”) [6] of the same compound?
The value was “able to inhibit the trypsin-like activity”.

And the EC50 ([7]; 1 h pretreatment)?
Its EC50 is 33 nM.

And the “luciferase activity upon TNF-α stimulation” value [7]?
Its value is “dose-dependent decrease of luciferase activity”.

And the EC50 [8]?
The EC50 was 109 ± 15 nM.

What about the EC50 [9, 17] of the same compound?
Its EC50 is 535 nM and 438 nM.

What about the EC50 [10] of the same compound?
The EC50 was 2 to 11 nM.

What about the EC50 ([10]; read-out: EC50 Chymotrypsin-like, purified rabbit 20S proteasome, suc-LLVY-AMC) of the same compound?
Its EC50 is 7 nM.

With C[C@@]12OC(=O)[C@]1([C@@H](O)[C@@H]1C=CCCC1)NC(=O)[C@@H]2CCBr [Formula II-18] as the compound, how does the EC50 [11, 18] read?
The EC50 was 6.3 nM.

And the EC50 ([11]; Homo sapiens, RPMI-8226, read-out: 1% FBS, EC50, Mean, RPMI 8226, media containing 1% FBS, mean of two)?
Its EC50 is 14 nM.

And the EC50 ([11]; Homo sapiens, RPMI-8226, read-out: 10% FBS, EC50, Mean, RPMI 8226, media containing 10% FBS, mean of two)?
The EC50 was 20 nM.

What about the “% cytotoxicity” value ([11]; human, 48 h) of the same compound?
The value was 94, 94%.

What about the EC50 ([12]; Homo sapiens, U-266, 48 h) of the same compound?
Its EC50 is 4.2 nM.

And the EC50 [13]?
Its EC50 is 17 nM.

What about the EC50 ([13]; Homo sapiens, 48 h) of the same compound?
The EC50 was 22 nM.

What about the EC50 [14] of the same compound?
Its EC50 is 18 nM.

And the EC50 ([14]; Homo sapiens, HL60/MX2, 48 h)?
The EC50 was 19 nM.

What about the EC50 [15] of the same compound?
Its EC50 is 23 nM.

And the EC50 ([15]; Homo sapiens, HL-60, 48 h)?
Its EC50 is 27 nM.

What about the “inhibition” value [6] of the same compound?
The value was “able to inhibit the trypsin-like activity”.

And the EC50 ([7]; 1 h pretreatment, listed as II-18, read-out: EC50)?
The EC50 was 11 nM.

And the EC50 ([7]; 1 h pretreatment, read-out: EC50)?
Its EC50 is 11 nM.

What about the EC50 ([7]; Homo sapiens, HEK293, 1 h pretreatment, read-out: EC50) of the same compound?
The EC50 was 9 nM.

What about the “luciferase activity upon TNF-α stimulation” value [7] of the same compound?
Its value is “dose-dependent decrease of luciferase activity”.

What about the EC50 [9, 17] of the same compound?
Its EC50 is 286 nM and 213 nM.

And the EC50 ([9]; read-out: EC50 Caspase-like (PGPH), listed as II-18)?
Its EC50 is 286 nM and 213 nM.

How did the EC50 [1] turn out when C[C@@]12OC(=O)[C@]1([C@@H](O)[C@@H]1C=CCCC1)NC(=O)[C@@H]2CCI [Formula II-19] was run?
The EC50 was 13 ± 1.9 nM.

And the EC50 ([2]; HT-29, 48 h)?
The EC50 was 11 ± 1.6 nM.

What about the EC50 [3] of the same compound?
Its EC50 is 14 ± 3.2 nM.

And the EC50 [4]?
Its EC50 is 27 ± 3.8 nM.

What about the EC50 ([5]; Homo sapiens, OVCAR-3, 48 h) of the same compound?
The EC50 was 24 nM.

What about the EC50 [5] of the same compound?
The EC50 was 20 nM.

What about the EC50 ([11]; RPMI 8226, 48 h drug exposure) of the same compound?
The EC50 was 6 nM and 7 nM.

And the EC50 [6]?
The EC50 was 15 nM.

What about the “inhibition” value [6] of the same compound?
The value was “able to inhibit the trypsin-like activity”.

What about the EC50 ([7]; 1 h pretreatment) of the same compound?
Its EC50 is 10 nM.

And the EC50 ([7]; 1 h pretreatment, listed as II-19)?
The EC50 was 10 nM.

What about the EC50 ([7]; Homo sapiens, HEK293, 1 h pretreatment) of the same compound?
The EC50 was 7 nM.

What about the “luciferase activity upon TNF-α stimulation” value [7] of the same compound?
The value was “dose-dependent decrease of luciferase activity”.

What about the EC50 [8] of the same compound?
The EC50 was 29 ± 4 nM.

What about the EC50 [9, 17] of the same compound?
Its EC50 is 739 nM.

And the EC50 [10]?
Its EC50 is 2 to 11 nM.

How did the EC50 ([1]; read-out: EC50) turn out when C[C@@]12OC(=O)[C@]1([C@@H](O)C1CCCCC1)NC(=O)[C@@H]2CCCl [Formula II-2] was run?
Its EC50 is 194 nM.

What about the EC50 ([2]; read-out: EC50) of the same compound?
The EC50 was 129 ± 21 nM.

What about the EC50 [11, 18] of the same compound?
Its EC50 is 49 nM.

What about the EC50 [12] of the same compound?
The EC50 was 39 nM.

What about the EC50 ([16]; Homo sapiens, MES-SA/Dx5, 48 h) of the same compound?
The EC50 was 220 nM.

And the EC50 [16]?
The EC50 was 138 nM.

And the EC50 ([15]; Homo sapiens, HL-60, 48 h)?
Its EC50 is 237 nM.

And the “inhibition” value [6]?
The value was “able to inhibit the trypsin-like activity”.

What about the “luciferase activity upon TNF-α stimulation” value [7] of the same compound?
Its value is “dose-dependent decrease of luciferase activity”.

And the EC50 ([9]; read-out: EC50 Caspase-like)?
Its EC50 is 1300 nM and 1700 nM.
